Experimental data reported in publication PMC6364417, “Kinase inhibitor library screening identifies synergistic drug combinations effective in sensitive and resistant melanoma cells” (Journal of Experimental & Clinical Cancer Research : CR, 2019).

Assays:
Test in all cases: Kinase inhibitor library screening, PrestoBlue cell viability, 1 or 10 μM, 72 h
[1] = system: 501Mel cells (parental); details: 501Mel Parental, in %
In short: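 Two concentrations of every kinase inhibitor were tested on each melanoma line and its resistant counterparts, and cell survival was quantified by PrestoBlue against untreated wells.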

[2] = system: 501Mel-GP cells (Dabrafenib-resistant); details: 501Mel GP, in %; for Cell viability in kinase inhibitor library screening, 501Mel GP, 1μΜ / Cell viability in kinase inhibitor library screening, 501Mel GP, 10μΜ: 72 h
[3] = system: 501Mel-XP cells (Vemurafenib-resistant); details: 501Mel XP, in %; for Cell viability in kinase inhibitor library screening, 501Mel XP, 1μΜ / Cell viability in kinase inhibitor library screening, 501Mel XP, 10μΜ: 72 h
[4] = system: A375 cells (parental); details: A375 Parental; for Cell viability in kinase inhibitor library screening, A375 Parental, 10μΜ / Cell viability in kinase inhibitor library screening, A375 Parental, 1μΜ: 72 h; for cell viability (kinase inhibitor library screening): in %
[5] = system: A375-GP cells (Dabrafenib-resistant); details: A375 GP; for Cell viability in kinase inhibitor library screening, A375 GP, 1μΜ / Cell viability in kinase inhibitor library screening, A375 GP, 10μΜ: 72 h; for cell viability (kinase inhibitor library screening): in %
[6] = system: A375-XP cells (Vemurafenib-resistant); details: A375 XP; for Cell viability in kinase inhibitor library screening, A375 XP, 1μΜ / Cell viability in kinase inhibitor library screening, A375 XP, 10μΜ: 72 h; for cell viability (kinase inhibitor library screening): in %
[7] = system: IGR37 cells (parental); details: IGR37 Parental, in %; for Cell viability in kinase inhibitor library screening, IGR37 Parental, 1μΜ / Cell viability in kinase inhibitor library screening, IGR37 Parental, 10μΜ: 72 h
[8] = system: IGR37-GP cells (Dabrafenib-resistant); details: IGR37 GP; for Cell viability in kinase inhibitor library screening, IGR37 GP, 10μΜ / Cell viability in kinase inhibitor library screening, IGR37 GP, 1μΜ: 72 h; for Cell viability in kinase inhibitor library screening, IGR37 GP, 1μΜ / cell viability (kinase inhibitor library screening): in %
[9] = system: IGR37-XP cells (Vemurafenib-resistant); details: IGR37 XP; for Cell viability in kinase inhibitor library screening, IGR37 XP, 10μΜ / Cell viability in kinase inhibitor library screening, IGR37 XP, 1μΜ: 72 h; for Cell viability in kinase inhibitor library screening, IGR37 XP, 1μΜ / cell viability (kinase inhibitor library screening): in %

| Structure (SMILES) | Cell viability in kinase inhibitor library screening, 501Mel Parental, 10μΜ ([1]; 10μΜ, 72 h) | Cell viability in kinase inhibitor library screening, 501Mel GP, 1μΜ ([2]; 1μΜ) | Cell viability in kinase inhibitor library screening, 501Mel GP, 10μΜ ([2]; 10μΜ) | Cell viability in kinase inhibitor library screening, 501Mel XP, 1μΜ [3] | Cell viability in kinase inhibitor library screening, 501Mel XP, 10μΜ ([3]; 10μΜ) | Cell viability in kinase inhibitor library screening, A375 Parental, 10μΜ ([4]; 10μΜ) | Cell viability in kinase inhibitor library screening, A375 Parental, 1μΜ ([4]; 1μΜ) | Cell viability in kinase inhibitor library screening, A375 GP, 1μΜ ([5]; 1μΜ) | Cell viability in kinase inhibitor library screening, A375 GP, 10μΜ ([5]; 10μΜ) | Cell viability in kinase inhibitor library screening, A375 XP, 1μΜ ([6]; 1μΜ) | Cell viability in kinase inhibitor library screening, A375 XP, 10μΜ ([6]; 10μΜ) | Cell viability in kinase inhibitor library screening, IGR37 Parental, 1μΜ [7] | Cell viability in kinase inhibitor library screening, IGR37 Parental, 10μΜ ([7]; 10μΜ) | Cell viability in kinase inhibitor library screening, IGR37 GP, 10μΜ ([8]; 10μΜ) [%] | Cell viability in kinase inhibitor library screening, IGR37 GP, 1μΜ ([8]; 1μΜ) | Cell viability in kinase inhibitor library screening, IGR37 XP, 10μΜ ([9]; 10μΜ) [%] | Cell viability in kinase inhibitor library screening, IGR37 XP, 1μΜ ([9]; 1μΜ) | other results |
| --- | --- | --- | --- | --- | --- | --- | --- | --- | --- | --- | --- | --- | --- | --- | --- | --- | --- | --- |
| COc1ccc(-c2ccc3c(N4CCOCC4)nc(N4C[C@@H](C)O[C@@H](C)C4)nc3n2)cc1CO [Ku-0063794] | 16.9 | 56.6 | 13.4 | 47.2 | 6.9 | 24.0 | 63.8 | 63.9 | 20.8 | 54.3 | 19.7 | 73.4 | 23.7 | 36.1 | 76.2 | 12.3 | 68.5 | Cell viability in kinase inhibitor library screening, 501Mel Parental, 1μΜ ([1]; 1μΜ, 72 h): 71.5 |
| c1ccc2c(-c3cnn4cc(-c5ccc(N6CCNCC6)cc5)cnc34)ccnc2c1 [LDN193189] |  |  |  |  |  |  |  |  |  |  |  |  |  |  |  |  |  | cell viability (kinase inhibitor library screening) ([1]; 1μΜ): 119.0; cell viability (kinase inhibitor library screening) ([1]; 10μΜ): 0.949; cell viability (kinase inhibitor library screening) ([2]; 1μΜ): 129.1; cell viability (kinase inhibitor library screening) ([2]; 10μΜ): 1.7; cell viability (kinase inhibitor library screening) ([3]; 10μΜ): 0.8; cell viability (kinase inhibitor library screening) ([4]; 1μΜ): 104.5; cell viability (kinase inhibitor library screening) ([4]; 10μΜ): 1.7; cell viability (kinase inhibitor library screening) ([5]; 1μΜ): 104.8; cell viability (kinase inhibitor library screening) ([5]; 10μΜ): 3.4; cell viability (kinase inhibitor library screening) ([6]; 1μΜ): 98.9; cell viability (kinase inhibitor library screening) ([6]; 10μΜ): 2.6; cell viability (kinase inhibitor library screening) ([7]; 10μΜ): 0.221; cell viability (kinase inhibitor library screening) ([8]; 1μΜ): 94.5; cell viability (kinase inhibitor library screening) ([8]; 10μΜ): 4.6; cell viability (kinase inhibitor library screening) ([9]; 1μΜ): 103.7; cell viability (kinase inhibitor library screening) ([9]; 10μΜ): 3.2 |
| O=c1cc(N2CCOCC2)oc2c(-c3ccccc3)cccc12 [LY294002] | 86.8 | 104.8 | 77.9 | 91.4 | 68.2 | 80.4 | 105.7 | 104.5 | 79.2 | 104.6 | 90.9 | 106.7 | 84.5 | 72.8 | 100.0 | 46.1 | 100.0 |  |
